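Protocol summary: plate cells (96-well), add compound at 5 concentrations, incubate 48 h, interpolate endpoints linearly. GI50: concentration for 50% inhibition of growth.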 Active and inactive are the calls of the source. Cut-off read from the data, not from the text of the source: active = GI50 up to about 1.1 µM and inactive = higher.
Experiments:
Test in all cases: NCI-60 cell line screen, 48 h
K562 = tested on: K562
UACC-257 = tested on: UACC-257
OVCAR-4 = tested on: OVCAR-4
MDA-MB-231 = tested on: MDA-MB-231
UACC-62 = tested on: UACC-62
SN12C = tested on: SN12C
SW-620 = tested on: SW-620
BT-549 = tested on: BT-549
SK-MEL-28 = tested on: SK-MEL-28
SF-539 = tested on: SF-539
HCC 2998 = tested on: HCC 2998
HOP-92 = tested on: HOP-92
UO-31 = tested on: UO-31
MDA-MB-435 = tested on: MDA-MB-435
SF-295 = tested on: SF-295
TK-10 = tested on: TK-10
A549 = tested on: A549
786-0 = tested on: 786-0
KM12 = tested on: KM12
HCT-15 = tested on: HCT-15
HCT-116 = tested on: HCT-116
COLO 205 = tested on: COLO 205
U-251 = tested on: U-251
MDA-N = tested on: MDA-N
SK-OV-3 = tested on: SK-OV-3
SR = tested on: SR
SNB-75 = tested on: SNB-75
SNB-19 = tested on: SNB-19
NCI-H460 = tested on: NCI-H460
EKVX = tested on: EKVX
HL-60 = tested on: HL-60
T47D = tested on: T47D
NCI-H522 = tested on: NCI-H522
ACHN = tested on: ACHN
MOLT-4 = tested on: MOLT-4
OVCAR-5 = tested on: OVCAR-5
PC-3 = tested on: PC-3
DU-145 = tested on: DU-145
LOX IMVI = tested on: LOX IMVI
SK-MEL-5 = tested on: SK-MEL-5
CCRF-CEM = tested on: CCRF-CEM
OVCAR-3 = tested on: OVCAR-3
HOP-62 = tested on: HOP-62
IGROV-1 = tested on: IGROV-1
RPMI-8226 = tested on: RPMI-8226
NCI-H23 = tested on: NCI-H23
A498 = tested on: A498
SF-268 = tested on: SF-268
MCF7 = tested on: MCF7
RXF 393 = tested on: RXF 393
CAKI-1 = tested on: CAKI-1
Hs-578T = tested on: Hs-578T
SK-MEL-2 = tested on: SK-MEL-2
M14 = tested on: M14

For `Cc1cc(Cl)cc2c1NC(=O)/C2=N\Nc1ccccc1[N+](=O)[O-]`, the GI50 (K562) was > 100 µM (inactive), the GI50 (UACC-257) was > 100 µM (inactive) and the GI50 (OVCAR-4) was > 100 µM (inactive). For the same molecule, the GI50 (MDA-MB-231) was 66.8 µM (inactive), the GI50 (UACC-62) was > 100 µM (inactive) and the GI50 (SN12C) was > 100 µM (inactive). For the same molecule, the GI50 (SW-620) was > 100 µM (inactive), the GI50 (BT-549) was > 100 µM (inactive) and the GI50 (SK-MEL-28) was > 100 µM (inactive). For the same molecule, the GI50 (SF-539) was > 100 µM (inactive), the GI50 (HCC 2998) was > 100 µM (inactive) and the GI50 (HOP-92) was 27 µM (inactive). The GI50 (UO-31) was > 100 µM (inactive), the GI50 (MDA-MB-435) was > 100 µM (inactive) and the GI50 (SF-295) was 64.7 µM (inactive). The GI50 (TK-10) was > 100 µM (inactive), the GI50 (A549) was > 100 µM (inactive) and the GI50 (786-0) was 54.6 µM (inactive). The GI50 (KM12) was > 100 µM (inactive), the GI50 (HCT-15) was greater than 100 µM and the GI50 (HCT-116) was > 100 µM (inactive). For the same molecule, the GI50 (COLO 205) was > 100 µM (inactive), the GI50 (U-251) was > 100 µM (inactive) and the GI50 (MDA-N) was > 100 µM (inactive). The GI50 (SK-OV-3) was > 100 µM (inactive), the GI50 (SR) was 16.7 µM (inactive) and the GI50 (SNB-75) was > 100 µM (inactive). For the same molecule, the GI50 (SNB-19) was > 100 µM (inactive), the GI50 (NCI-H460) was > 100 µM (inactive) and the GI50 (EKVX) was > 100 µM (inactive). The GI50 (HL-60) was > 100 µM (inactive), the GI50 (T47D) was > 100 µM (inactive) and the GI50 (NCI-H522) was > 100 µM (inactive). For the same molecule, the GI50 (ACHN) was > 100 µM (inactive), the GI50 (MOLT-4) was 74.3 µM (inactive) and the GI50 (OVCAR-5) was > 100 µM (inactive). For the same molecule, the GI50 (PC-3) was 38.8 µM (inactive), the GI50 (DU-145) was 78.2 µM (inactive) and the GI50 (LOX IMVI) was 84.7 µM (inactive). For the same molecule, the GI50 (SK-MEL-5) was > 100 µM (inactive), the GI50 (CCRF-CEM) was 21.1 µM (inactive) and the GI50 (OVCAR-3) was > 100 µM (inactive). For the same molecule, the GI50 (HOP-62) was 50.5 µM (inactive), the GI50 (IGROV-1) was 19.1 µM (inactive) and the GI50 (RPMI-8226) was > 100 µM (inactive). For the same molecule, the GI50 (NCI-H23) was 40.5 µM (inactive), the GI50 (A498) was > 100 µM (inactive) and the GI50 (SF-268) was > 100 µM (inactive). The GI50 (MCF7) was > 100 µM (inactive), the GI50 (RXF 393) was > 100 µM (inactive) and the GI50 (CAKI-1) was > 100 µM (inactive). For the same molecule, the GI50 (Hs-578T) was 35.3 µM (inactive), the GI50 (SK-MEL-2) was > 100 µM (inactive) and the GI50 (M14) was > 100 µM (inactive).
